These are literature values, as cited in patent US20240207217A1, “IMPROVED TREATMENT METHODS FOR CABAZITAXEL” (ORBICULAR PHARMACEUTICAL TECHNOLOGIES PRIVATE LIMITED, priority 2020, published 2024).

For series [1] the following is noted: clinical trials in patients with cancer.
Another series relates to complement. To be noted: enzyme-linked immunosorbent assays.
The conditions of series [2]: IV administration; high clearance and small Vd.

Entries after “also recorded” stand apart in the source; their conditions may differ.

Turning to `CO[C@H]1C(=O)[C@]2(C)[C@@H](OC)C[C@H]3OC[C@@]3(OC(C)=O)[C@H]2[C@H](OC(=O)c2ccccc2)[C@]2(O)C[C@H](OC(=O)[C@H](O)[C@@H](NC(=O)OC(C)(C)C)c3ccccc3)C(C)=C1C2(C)C` [cabazitaxel], the Solubility in water result is given as “poorly soluble”. As to `CC(=O)O[C@@]12CO[C@@H]1C[C@H](O)[C@@]1(C)C(=O)[C@H](O)C3=C(C)[C@@H](OC(=O)[C@H](O)[C@@H](NC(=O)OC(C)(C)C)c4ccccc4)C[C@@](O)([C@@H](OC(=O)c4ccccc4)[C@H]21)C3(C)C` [docetaxel], the Solubility in water entry is on record as “poorly soluble”. Also, the “Incidence of infusion-site adverse events (ISAEs)” value in series [1] was 3-4%. The “Complement activation in vitro (in words)” value in the series with complement is “cause complement activation”. Take `CC(=O)O[C@H]1C(=O)[C@@]2(C)[C@H]([C@H](OC(=O)c3ccccc3)[C@]3(O)C[C@H](OC(=O)[C@H](O)[C@@H](NC(=O)c4ccccc4)c4ccccc4)C(C)=C1C3(C)C)[C@]1(OC(C)=O)CO[C@@H]1C[C@@H]2O` [paclitaxel]: the Solubility in water result is on record as “poorly soluble”. As for “Poly-oxyethylene-sorbitan monooleate [polysorbate 80]”, the “Complement activation in vitro (in words)” value in the series with complement is reported as “cause complement activation; also recorded: could activate the complement system”. For the molecule “sulfobutyl-ether-beta-cyclodextrin [SBCD]”, the “Half-life (t ½)” value in series [2] is “quite short”.
